Measured values taken from patent US20150080580A1, “THIOUREA DERIVATIVES AS a-CHYMOTRYPSIN INHIBITORS” (priority 2013, published 2015).

Tests used:
α-Chymotrypsin [1] = biological target: T1, α-Chymotrypsin (Bos taurus, UniProt P00766); assay: α-Chymotrypsin inhibition assay (SPpNA substrate, absorbance at 410 nm); type: biochemical, bovine; details: for IC50: α-chymotrypsin, substrate SPpNA 0.4 mM, pH 7.6, 30° C., n = 3
T1 construct: purchased Sigma-Aldrich (USA) C4129; host or cells: bovine pancreas
Description: (§1) α-Chymotrypsin (bovine pancreas, C4129) and N-succinyl-L-phenylalanine-p-nitroaniline (S2628) were purchased from Sigma-Aldrich (USA). Chymostatin (152845) from MP Biomedicals, LLC, USA, Tris(hydroxymethyl)aminomethane from Scharlau Chemie Barcelona, Spain and all other reagents were obtained from E. Merck and were of analytical grade. All other solvents and reagents were of analytical grade and used directly without purification.
This was performed in 50 mM Tris-HCl buffer pH 7.6 with 10 mM CaCl2. α-Chymotrypsin (12 units/mL prepared in 50 mM Tris-HCl buffer) with the different concentration of test compounds prepared in DMSO. It was then incubated at 30° C. for 25 min. The reaction was started by the addition of the substrate, N-succinyl-L-phenylalanine-p-nitroanilide (final concentration of 0.4 mM, prepared in the buffer as mentioned above). The change in absorbance due to released p-nitroaniline was continuously monitored at 410 nm (Choudhary et al., 2011). All the experiments were in a final volume of 200 μL in triplicate, and data was taken using a micro-plate reader (SpectraMax M2, Molecular Devices, Calif., USA).
The results were processed by using SoftMax Pro 4.8 then analyzed by MS Excel software. The % of inhibition based upon initial velocity and calculated as: […]
IC50 (Inhibition of enzymatic hydrolysis of the substrate SPpNA by 50%) value was calculated using EZ-Fit software (Perellela Scientific, Inc., Amherst, Mars, USA).

α-Chymotrypsin [2] = biological target: T1, α-Chymotrypsin; assay: α-Chymotrypsin inhibition kinetic study (Lineweaver-Burk, Dixon, Hanes-Woolf plots); type: biochemical, bovine; details: for Type of inhibition: from Lineweaver-Burk, Dixon and Hanes-Woolf plots; for Ki: substrate SPpNA 0.4-3.2 mM, n = 3, read-out: Ki ± SEM
Excerpt: as §1
The change in concentration of the substrate/product (rate of reaction) was measured as optical density per minute (OD/min). This OD/min was obtained by incorporating different concentrations of compounds over substrate (SPpNA) concentrations between 0.4 mM and 3.2 mM in micro-plate reader. Reciprocal of OD/min against the reciprocal of the substrate concentration, defined as Lineweaver-Burk plot (and its secondary plot; slope vs compound concentration); the Dixon plot (and its secondary plot; slope vs reciprocal of compound concentration) and then Hanes-Woolf plot were plotted (Lineweaver et al., 1934; Dixon, 1953; Segel, 1993) Graphs were plotted using GraFit 4 (Erithacus Software Limited, Surrey, UK) and GraphPad Prism 5 (GraphPad Software, California, USA). The types of inhibition were determined by the graphical views of Dixon plots, Lineweaver-Burk plots and their secondary plots as well as Hanes-Woolf plot. The Ki values, obtained directly from the software, also were cross-checked and tallied in these graphs. Final concentration of DMSO was maintained 5.5%.

[3] = Cell proliferation inhibition (cytotoxicity) MTT assay for 3T3 cell line; type: cell-based, Mouse; details: 3T3 mouse fibroblast cells; 3T3 mouse fibroblasts, MTT, 72 hrs, n = 3; read-out: 3T3 cell-line GI50 ± SEM
Description: (§2) It was evaluated by using the MTT (3-[4,5-dimethylthiazole-2-yl]-2,5-diphenyl-tetrazolium bromide) assay (Mosmann, 1983). The 3T3 cell-lines (Mouse Fibroblasts) were cultured in Dulbecco's Modified Eagle's Medium, which was later supplemented with 5% of bovine serum, 100 IU/mL of penicillin, and 100 μg/mL of streptomycin, in 5% CO2 incubator at 37° C. Exponentially growing cell, 1×10^4 cells/well incorporated into each well of 96-well plates. Then, fresh the medium containing different concentrations of compounds were loaded in each well after 24 hours. Again, after 72 hrs, fresh the medium containing 0.5 mg/mL MTT were loaded in each well, and incubated further for 4 hrs. Subsequently, the media containing MTT was replaced by 100 μL of DMSO for 15 min, and then the absorbance was taken at 570 nm.

3T3 cell line = assay: as above; type: cell-based, Mouse
Description: as §2

SMILES	IC50 (α-Chymotrypsin [1]) [µM]	Type of inhibition (α-Chymotrypsin [2])	Ki (α-Chymotrypsin [2]) [µM]	α-chymotrypsin inhibition (in words) (α-Chymotrypsin [1])	GI50 at 72 h [3] [µM]	growth inhibition for 3T3 cell lines (in words) (3T3 cell line)
S=C(Nc1cccc(Cl)c1)Nc1cccc(Cl)c1Cl [Compound 13, 1-(3-chlorophenyl)-3-(2,3-dichlorophenyl) thiourea]	107 ± 9.1	Competitive	87.3 ± 6.7		> 30	
Cc1ccc(C)c(NC(=S)Nc2cccc(Cl)c2)c1 [Compound 14, 1-(3-Chlorophenyl)-3-(2,5-dimethylphenyl) thiourea]	151 ± 8.8	Competitive	107 ± 5.5		> 30	
Cc1ccc(NC(=S)Nc2cccc(Cl)c2)c(C)c1 [Compound 15, 1-(3-Chlorophenyl)-3-(2,4-dimethylphenyl) thiourea]	192 ± 9.2	Non- Competitive	173 ± 7.9		> 30	
S=C(Nc1cccc(Cl)c1)Nc1c(Cl)cccc1Cl [Compound 16, 1-(3-Chlorophenyl)-3-(2,6-dichlorophenyl) thiourea]	247.3 ± 1.7	Competitive	210 ± 11.8		> 30	
Cc1ccccc1NC(=S)Nc1cccc(Cl)c1 [Compound 17, 1-(3-Chlorophenyl)-3-o-tolylthiourea]	387 ± 13.1	Competitive	329 ± 11.6		> 30	
S=C(NCc1ccncc1)Nc1cccc(Cl)c1 [Compound 18, 1-(3-Chlorophenyl)-3-(pyridin-4-ylmethyl)thiourea]	186 ± 12.8	Competitive	148 ± 4.8		> 30	
S=C(Nc1cccnc1)Nc1cccc(Cl)c1 [Compound 19, 1-(3-Chlorophenyl)-3-(pyridin-3-yl) thiourea]	199	Competitive	166 ± 5.9		> 30	
S=C(Nc1ccccc1)Nc1cccc(Br)c1 [Compound 21, 1-(3-Bromophenyl)-3-phenylthiourea]	79.2 ± 0.6	Mixed	60.8 ± 7.4		> 30	
Fc1ccc(NC(=S)Nc2ccccc2)c(F)c1 [Compound 22, 1-(2,4-Difluorophenyl)-3-phenylthiourea]	193 ± 1	Competitive	142 ± 5		> 30	
S=C(Nc1cccc(Cl)c1)Nc1ccccc1Cl [Compound 23, 1-(2-Chlorophenyl)-3-(3-chlorophenyl) thiourea]	> 500			failed to show any inhibition		
Cc1cccc(C)c1NC(=S)Nc1cccc(Cl)c1 [Compound 24, 1-(3-Chlorophenyl)-3-(2,6-dimethylphenyl) thiourea]	> 500					
Cc1cccnc1NC(=S)Nc1cccc(Cl)c1 [Compound 25, 1-(3-Chlorophenyl)-3-(3-methylpyridin-2-yl)thiourea]	> 500					
S=C(Nc1cccc(Cl)c1)Nc1cccnc1Cl [Compound 26, 1-(3-Chlorophenyl)-3-(2-chloropyridin-3-yl)thiourea]	> 500					
COc1ccc(OC)c(NC(=S)Nc2ccccc2)c1 [Compound 27, 1-(2,5-Dimethoxyphenyl)-3-phenylthiourea]	> 500					
S=C(Nc1ccccc1)Nc1ccccn1 [Compound 28, 1-Phenyl-3-(pyridin-2-yl) thiourea]	> 500					
S=C(Nc1ccccc1)Nc1cccnc1 [Compound 29, 1-Phenyl-3-(pyridin-3-yl) thiourea]	> 500			inactive		
S=C(Nc1ccccc1)Nc1ccncc1 [Compound 30, 1-Phenyl-3-(pyridin-4-yl) thiourea]	> 500					
Cc1cccnc1NC(=S)Nc1ccccc1 [Compound 31, 1-(3-Methylpyridin-2-yl)-3-phenylthiourea]	> 500					
Cc1ccc(NC(=S)Nc2ccccc2)nc1C [Compound 32, 1-(5,6-Dimethylpyridin-2-yl)-3-phenylthiourea]	> 500					
S=C(Nc1ccccc1)Nc1cccnc1Cl [Compound 33, 1-(2-Chloropyridin-3-yl)-3-phenylthiourea]	> 500					
S=C(NCc1cccnc1)Nc1ccccc1 [Compound 34, 1-Phenyl-3-(pyridin-3-ylmethyl)thiourea]	> 500					
S=C(NCc1ccncc1)Nc1ccccc1 [Compound 35, 1-Phenyl-3-(pyridin-4-ylmethyl)thiourea]	> 500					

Stronger by IC50 (α-Chymotrypsin [1]), values ahead:

IC50 (α-Chymotrypsin [1]) [µM]	Type of inhibition (α-Chymotrypsin [2])	Ki (α-Chymotrypsin [2]) [µM]	α-chymotrypsin inhibition (in words) (α-Chymotrypsin [1])	SMILES	GI50 at 72 h [3] [µM]	growth inhibition for 3T3 cell lines (in words) (3T3 cell line)
11.6	mixed-type	8.6 ± 0.8		S=C(Nc1ccc(Cl)cc1)Nc1cccc(Cl)c1 [Compound 1, 1-(3-Chlorophenyl)-3-(4-chlorophenyl) thiourea]	> 30	
18.8 ± 0.2	non-competitive-type	15.5 ± 0.4		S=C(Nc1cccc(Cl)c1)Nc1ccc(Cl)c(Cl)c1 [Compound 2, 1-(3-Chlorophenyl)-3-(3,4-dichlorophenyl) thiourea]	> 30	
23.3	Mixed	15.9 ± 1.5		S=C(Nc1cccc(Cl)c1)Nc1cccc(Cl)c1 [Compound 3, 1,3-Bis(3-chlorophenyl) thiourea]	> 30	
25.4 ± 0.2	Mixed	21.2 ± 1.5		COc1cccc(NC(=S)Nc2cccc(Cl)c2)c1 [Compound 4, 1-(3-Chlorophenyl)-3-(3-methoxyphenyl) thiourea]	> 30	
26.3 ± 4.9	Non- Competitive	25.3 ± 4.6		COc1ccccc1NC(=S)Nc1cccc(Cl)c1 [Compound 5, 1-(3-Chlorophenyl)-3-(2-methoxyphenyl) thiourea]	10.7 ± 1.2	showed growth inhibition
34.3 ± 2.8	Mixed	25.6 ± 0.9		COc1ccc(NC(=S)Nc2cccc(Cl)c2)cc1 [Compound 6, 1-(3-Chlorophenyl)-3-(4-methoxyphenyl) thiourea]	> 30	
40.4 ± 1.2	Competitive	25.8 ± 0.9		Cc1ccc(Cl)cc1NC(=S)Nc1cccc(Cl)c1 [Compound 7, 1-(5-Chloro-2-methylphenyl)-3-(3-chlorophenyl) thiourea]	24.6 ± 0.2	showed growth inhibition
48.5 ± 1.7	Mixed	31.6 ± 1.8		Cc1cccc(NC(=S)Nc2cccc(Cl)c2)c1 [Compound 10, 1-(3-Chlorophenyl)-3-m-tolylthiourea]	> 30	
66.9 ± 4.9	Competitive	49.8 ± 2.6		Fc1ccc(NC(=S)Nc2cccc(Cl)c2)cc1F [Compound 11, 1-(3-Chlorophenyl)-3-(3,4-difluorophenyl) thiourea]	> 30	
68.4 ± 8.5	Competitive	62.5 ± 2.5		Fc1ccc(NC(=S)Nc2cccc(Cl)c2)cc1 [Compound 12, 1-(3-Chlorophenyl)-3-(4-fluorophenyl) thiourea]	> 30	
45.7 ± 2.9	competitive-type	21.1 ± 2.5		S=C(Nc1ccccc1)Nc1ccc(Br)cc1 [Compound 20, 1-(4-Bromophenyl)-3-phenylthiourea]	> 30	
